# Like-named read-outs stand apart in the source and are kept apart here.
# Legend:
# [1] = system: H9 human ESC line; settings: cited from earlier work
# [2] = system: RUES2-GLR cells; experiment: DevTox GLR-Endo assay: decrease in total cell count, cytotoxicity (AEID 3098, CellCount_dn); settings: for Emax: Homo sapiens, read-out: Cell Count % Max Inhibition
# [3] = as above; settings: human
# [4] = system: SOX2 (ectoderm and pluripotency marker) in RUES2-GLR cells; experiment: DevTox GLR-Endo assay: increase in percent SOX2-positive cells (AEID 3095, Sox2_up); settings: for MAX_MEAN: tcpl plot AEID3095, maximum mean response; for MAX_MED: tcpl plot AEID3095, maximum median response; for AC50 / Emax: Homo sapiens; for AC50: read-out: ga (winning model); for Emax: read-out: tp (winning model);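 for all read-outs here: cells exposed to test chemicals for 48 h in total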
# [5] = cited from earlier work; for Development Toxicant Classification: Table S2; for Classification: developmental toxicant classification (Teratogen / Non-Teratogen) of reference and training chemicals, ref DOI per chemical: 10.1093/toxsci/kft239, 10.1093/toxsci/kfaa014, 10.1177/026119290203000204, 10.1038/s41598-020-59542-x; for DT Class.: developmental toxicant classification
# [6] = system: SOX17 in H9 human ESC line; settings: SOX17 half-maximal inhibition concentration; read-out: hPST IC50; cited from earlier work
# [7] = system: BRA (mesoderm marker) in RUES2-GLR cells; experiment: DevTox GLR-Endo assay: increase in percent BRA-positive cells (AEID 3096, Bra_up); format: cell-based, human; settings: for HIT−CALL: tcpl plot AEID3096, COFF 0.774; for MAX_MEAN: tcpl plot AEID3096, maximum mean response; for MAX_MED: tcpl plot AEID3096, maximum median response
# Procedure: (§1) The total test chemical incubation period was 48 h.
# (§2) (Supplementary Materials).
# [8] = system: SOX17 (endoderm marker) in RUES2-GLR cells; experiment: DevTox GLR-Endo assay: decrease in percent SOX17-positive cells (AEID 3094, Sox17_dn); settings: for Hit Call: Table S2, SOX17-positive cells, cutoff 3*bmad; for DevTox ACC: Table S2, percent SOX17-positive cells; for HIT−CALL: tcpl plot AEID3094, COFF 20.3; for hit call designation (in words): DevTox GLR-Endo prediction against developmental toxicant classification
# How it was run: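 Readouts are loss of SOX17-positive fraction and reduced cell number in endoderm-differentiating RUES2-GLR cells after 48 h of chemical exposure. Controls: undifferentiated and differentiated cells, 0.2% DMSO, and 1 µM SB431542; at least four biological replicates.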
# [9] = system: SOX17 (endoderm marker) in RUES2-GLR cells; experiment: DevTox GLR-Endo assay: increase in percent SOX17-positive cells (AEID 3093, Sox17_up); format: cell-based, human; settings: for Emax: Homo sapiens; for HIT−CALL: tcpl plot AEID3093, COFF 20.3
# Procedure: as §1, §2
# [10] = cytotoxicity half-maximal concentration
# [11] = RUES2-GLR cells under directed endoderm differentiation
# [12] = Homo sapiens, 48 h, read-out: DevTox-GLR Endo AC50 (µM), SOX17 half-maximal activity concentration, 48 h exposure
# [13] = Homo sapiens, read-out: DevTox % Max Inhibition
# [14] = Homo sapiens, read-out: MAX_MEAN
# [15] = Homo sapiens, read-out: MAX_MED
# [16] = tcpl plot AEID3093, maximum mean response, read-out: MAX_MEAN
# [17] = tcpl plot AEID3093, maximum median response, read-out: MAX_MED
# [18] = Homo sapiens, read-out: ga (winning model), tcpl plot AEID3094, gain parameter of winning curve fit (log concentration, µM axis), hit calls only (converted)
# [19] = Homo sapiens, read-out: tp (winning model)
# [20] = read-out: DevTox-GLR Endo AC50, SOX17 half-maximal activity concentration, 48 h exposure
SMILES,"hPST TC50 [1, 10]",hPST TC50 ([1]; hPST cytotoxicity),Emax [2],"Cell Count ACC ([2]; human, 48 h)",MAX_MEAN [4],MAX_MED [4],Development Toxicant Classification [5],DT Class. ([5]; chemicals common with hPST),IC50 [6],HIT−CALL [7],MAX_MEAN [7],"AC50 [8, 12]","Emax [8, 13]","Emax [8, 14]","Emax [8, 15]",Hit Call [8],HIT−CALL [8],"Emax [9, 16]","Emax [9, 17]",HIT−CALL [9],other results
CC(=O)Oc1ccccc1C(=O)O [Aspirin],>200 µM,> 200 µM,2.85%,>200 µM,0.503 Percent Activity,0.512 Percent Activity,Negative,Neg,> 200 µM,1,1.04 Percent Activity,> 200 µM,12.4%,13.1%,12.4%,Negative,0,-3.36%,-3.07%,0,"CC50 at 48 h [3, 11]: > 200 µM; Classification [5]: Non-Teratogen; DT Class. ([5]; chemicals common with quickPredict): Neg; Developmental Toxicant Classification ([5]; reference chemicals): Negative; MAX_MED [7]: 1.03 Percent Activity; DevTox ACC ([8]; 48 h exposure): >200 µM"
Oc1cc(O)c2c(c1)O[C@H](c1ccc(O)c(O)c1)[C@@H](O)C2 [Cianidanol],200 µM,200 µM,29.6%,180.189 µM,0.447 Percent Activity,0.456 Percent Activity,Negative,Neg,97 µM,0,1.32 Percent Activity,93 µM,39.8%,39.3%,39.8%,Positive,1,6.18%,7.45%,0,"CC50 at 48 h [3, 11]: 194 µM; MAX_MED [7]: 1.37 Percent Activity; SOX17 ACC relative to cytotoxic concentration (in words) [8]: below cytotoxic concentrations; hit call designation (in words) [8]: false positive; AC50 [8, 18]: 93.3 µM; Emax [8, 19]: 39.4%; DevTox ACC ([8]; 48 h exposure): 93.5186 µM; AC50 [8, 20]: 92.9 µM"
O=C(c1ccc(F)cc1)C1CCN(CCn2c(=O)[nH]c3ccccc3c2=O)CC1 [Ketanserin],>200 µM,> 200 µM,68.7%,33.5346 µM,1.16 Percent Activity,1.15 Percent Activity,Negative,Neg,> 200 µM,0,1.82 Percent Activity,36.6 µM,33.3%,36.9%,33.3%,Positive,1,5.18%,5.62%,0,"CC50 at 48 h [3]: 57.5 µM; Classification [5]: Non-Teratogen; MAX_MED [7]: 2.05 Percent Activity; hit call designation (in words) [8]: false positive; AC50 [8, 18]: 36.3 µM; Emax [8, 19]: 31.8%; DevTox ACC ([8]; 48 h exposure): 39.2719 µM"
C[C@](N)(Cc1ccc(O)c(O)c1)C(=O)O [Methyldopa],462 µM,462 µM,10.2%,>200 µM,4.03 Percent Activity,0.534 Percent Activity,Negative,Neg,272 µM,0,0.823 Percent Activity,113 µM,23.5%,19.9%,23.5%,Positive,1,13.8%,12.9%,0,"CC50 at 48 h [3, 11]: > 200 µM; Classification [5]: Non-Teratogen; MAX_MED [7]: 0.851 Percent Activity; hit call designation (in words) [8]: false positive; AC50 [8, 18]: 112 µM; Emax [8, 19]: 30.9%; DevTox ACC ([8]; 48 h exposure): 217.84 µM; AC50 [8, 20]: 113 µM"
"O=C(O)c1cccnc1 [Niacin, Nicotinic acid]",>200 µM,> 200 µM,10.8%,>200 µM,0.611 Percent Activity,0.561 Percent Activity,Negative,Neg,> 200 µM,0,0.818 Percent Activity,> 200 µM,6.06%,5.21%,6.06%,Negative,0,11.3%,11.4%,0,CC50 at 48 h [3]: > 200 µM; Classification [5]: Non-Teratogen; MAX_MED [7]: 0.865 Percent Activity
CC1(C)S[C@@H]2[C@H](NC(=O)Cc3ccccc3)C(=O)N2[C@H]1C(=O)O [Penicillin G],>400 µM,> 400 µM,13.3%,>200 µM,2.17 Percent Activity,0.88 Percent Activity,–,–,> 400 µM,0,0.857 Percent Activity,> 200 µM,10.3%,12.2%,10.3%,Negative,0,13.2%,12.4%,0,CC50 at 48 h [3]: > 200 µM; MAX_MED [7]: 0.92 Percent Activity; DevTox ACC ([8]; 48 h exposure): >200 µM
Cc1nc2sccn2c(=O)c1CCN1CCC(=C(c2ccc(F)cc2)c2ccc(F)cc2)CC1 [Ritanserin],27 µM,27 µM,94.7%,–,2.33 Percent Activity,1.82 Percent Activity,Positive,Pos,7.3 µM,1,2.65 Percent Activity,9.98 µM,102%,102%,102%,Positive,1,-0.644%,-1.38%,0,"Cell Count ACC ([2]; Table S2, 48 h exposure): 6.426 µM; CC50 at 48 h [3, 11]: 9.47 µM; AC50 [4]: 158 µM; Emax [4]: 4.15%; Classification [5]: Teratogen; MAX_MED [7]: 3.04 Percent Activity; AC50 [8, 18]: 9.98 µM; Emax [8, 19]: 102%; DevTox ACC ([8]; 48 h exposure): 8.389 µM"
O=C1Cc2cc(CCN3CCN(c4nsc5ccccc45)CC3)c(Cl)cc2N1 [Ziprasidone],5.1 µM,5.1 µM,93.7%,1.527 µM,4.63 Percent Activity,4.3 Percent Activity,Positive,Pos,2.8 µM,–,–,3.57 µM,101%,101%,101%,Positive,1,3.27%,4.35%,0,"CC50 at 48 h [3]: 2.42 µM; AC50 [4]: 3.67 µM; Emax [4]: 4.2%; Classification [5]: Teratogen; AC50 [8, 18]: 3.56 µM; Emax [8, 19]: 101%; DevTox ACC ([8]; 48 h exposure): 2.997 µM"
